# PubChem BioAssay (NCI)
#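 Protocol summary: plate cells (96-well), add compound at 5 concentrations, incubate 48 h, interpolate endpoints linearly. GI50 is the concentration that inhibits growth by half. At the TGI there is no net growth.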
# Key:
# Experiment in all cases: DTP human tumour cell line panel, 48 h
# [1] = system: MOLT-4 leukemia
# [2] = system: MDA-MB-435
# [3] = system: EKVX NSCLC
# [4] = system: SK-OV-3 ovarian
# [5] = system: COLO 205 colon
# [6] = system: MCF7 breast
# [7] = system: MDA-MB-231 breast
# [8] = system: K-562 leukemia
# [9] = system: M14 melanoma
# [10] = system: SK-MEL-28 melanoma
# [11] = system: OVCAR-4 ovarian
# [12] = system: PC-3 prostate
# [13] = system: A498 renal
# [14] = system: T-47D breast
# [15] = system: NCI-H460 lung
# [16] = system: ACHN renal
# [17] = system: SR leukemia
# [18] = system: BT-549 breast
# [19] = system: MALME-3M melanoma
# [20] = system: SF-295 CNS
# [21] = system: CCRF-CEM leukemia
# [22] = system: RXF 393 renal
# [23] = system: IGROV1 ovarian
# [24] = system: SF-539 CNS
# [25] = system: DU-145 prostate
# [26] = system: OVCAR-8 ovarian
# [27] = system: NCI-H522 lung
# [28] = system: KM12 colon
# [29] = system: HOP-92 NSCLC
# [30] = system: SK-MEL-2 melanoma
# [31] = system: LOX IMVI melanoma
# [32] = system: HCT-116 colon
# [33] = system: HT29 colon
# [34] = system: TK-10 renal
# [35] = system: SNB-75 CNS
# [36] = system: HOP-62 NSCLC
# [37] = system: CAKI-1 renal
# [38] = system: NCI-H226 lung
# [39] = system: SW-620 colon
# [40] = system: HL-60(TB) leukemia
# [41] = system: HCT-15 colon
# [42] = system: SF-268 CNS
# [43] = system: HS 578T breast
# [44] = system: RPMI-8226 leukemia
# [45] = system: OVCAR-5 ovarian
# [46] = system: U251 CNS
# [47] = system: NCI/ADR-RES ovarian
# [48] = system: HCC-2998 colon
# [49] = system: A549 NSCLC
# [50] = system: UACC-62 melanoma
# [51] = system: SN12C renal
# [52] = system: UO-31 renal
# [53] = system: NCI-H23 lung
# [54] = system: SK-MEL-5 melanoma
# [55] = system: OVCAR-3 ovarian
# [56] = system: SNB-19 CNS
# [57] = system: 786-0 renal
# [58] = system: UACC-257 melanoma
smiles,measurement,setting,value
Cc1c([C@H](C(Cl)Cl)[C@H](O)[C@H]2C[C@H](C)C(=O)O2)ccc2c1C(=O)[C@H]1[C@H]2C[C@@H](Br)[C@@]23O[C@@H](CO[C@H]2O)CC13C (stereo partly drawn),GI50,[1],1.12 µM
same,TGI,[1],> 50 µM
same,GI50,[2],0.136 µM
same,TGI,[2],0.425 µM
same,GI50,[3],0.695 µM
same,TGI,[3],> 50 µM
same,GI50,[4],0.292 µM
same,TGI,[4],4.07 µM
same,GI50,[5],0.213 µM
same,TGI,[5],1.09 µM
same,GI50,[6],0.172 µM
same,TGI,[6],> 50 µM
same,GI50,[7],0.561 µM
same,TGI,[7],> 15.2 µM
same,GI50,[8],0.217 µM
same,TGI,[8],> 50 µM
same,GI50,[9],0.207 µM
same,TGI,[9],1.18 µM
same,TGI,[10],> 50 µM
same,GI50,[11],1.37 µM
same,TGI,[11],> 50 µM
same,GI50,[12],0.33 µM
same,TGI,[12],> 50 µM
same,GI50,[13],0.304 µM
same,TGI,[13],> 11.1 µM
same,GI50,[14],0.258 µM
same,TGI,[14],> 50 µM
same,GI50,[15],0.187 µM
same,TGI,[15],> 50 µM
same,GI50,[16],2.26 µM
same,TGI,[16],> 50 µM
same,GI50,[17],0.153 µM
same,TGI,[17],> 50 µM
same,GI50,[18],1.01 µM
same,TGI,[18],> 36.3 µM
same,GI50,[19],0.275 µM
same,TGI,[19],> 50 µM
same,GI50,[20],0.22 µM
same,TGI,[20],2.53 µM
same,GI50,[21],0.33 µM
same,TGI,[21],> 50 µM
same,GI50,[22],0.467 µM
same,GI50,[23],0.845 µM
same,TGI,[23],> 29.6 µM
same,GI50,[24],0.304 µM
same,TGI,[24],2.79 µM
same,GI50,[25],0.157 µM
same,TGI,[25],2.05 µM
same,GI50,[26],0.449 µM
same,TGI,[26],> 50 µM
same,GI50,[27],0.183 µM
same,TGI,[27],1.69 µM
same,GI50,[28],0.26 µM
same,TGI,[28],> 16.6 µM
same,GI50,[29],0.636 µM
same,TGI,[29],> 45.3 µM
same,GI50,[30],0.403 µM
same,TGI,[30],> 22.2 µM
same,GI50,[31],0.602 µM
same,TGI,[31],> 50 µM
same,GI50,[32],0.206 µM
same,TGI,[32],5.07 µM
same,GI50,[33],0.179 µM
same,TGI,[33],> 50 µM
same,GI50,[34],1.68 µM
same,TGI,[34],> 50 µM
same,GI50,[35],0.454 µM
same,TGI,[35],> 50 µM
same,GI50,[36],0.571 µM
same,TGI,[36],> 50 µM
same,GI50,[37],0.798 µM
same,TGI,[37],> 29.5 µM
same,GI50,[38],> 12.7 µM
same,TGI,[38],> 50 µM
same,GI50,[39],0.309 µM
same,TGI,[39],> 50 µM
same,GI50,[40],0.112 µM
same,TGI,[40],> 50 µM
same,GI50,[41],0.373 µM
same,TGI,[41],> 50 µM
same,GI50,[42],0.586 µM
same,TGI,[42],> 50 µM
same,GI50,[43],0.708 µM
same,TGI,[43],> 39.5 µM
same,GI50,[44],0.24 µM
same,TGI,[44],> 50 µM
same,GI50,[45],0.314 µM
same,TGI,[45],> 50 µM
same,GI50,[46],0.262 µM
same,TGI,[46],> 50 µM
same,GI50,[47],2.17 µM
same,TGI,[47],11 µM
same,GI50,[48],0.215 µM
same,TGI,[48],1.12 µM
same,GI50,[49],0.435 µM
same,TGI,[49],> 50 µM
same,GI50,[50],0.324 µM
same,TGI,[50],> 50 µM
same,GI50,[51],0.881 µM
same,TGI,[51],> 50 µM
same,GI50,[52],8.89 µM
same,TGI,[52],> 50 µM
same,GI50,[53],0.295 µM
same,TGI,[53],> 15.3 µM
same,GI50,[54],0.186 µM
same,TGI,[54],3.97 µM
same,GI50,[55],0.181 µM
same,GI50,[56],0.38 µM
same,TGI,[56],> 50 µM
same,GI50,[57],0.481 µM
same,TGI,[57],21.9 µM
CCOC(=O)c1c(NC(=O)COc2cccc3cccnc23)sc(C(=O)N(C)C)c1C,GI50,[1],16.4 µM
same,TGI,[1],44.3 µM
same,GI50,[2],16.1 µM
same,TGI,[2],31.5 µM
same,GI50,[3],23 µM
same,TGI,[3],61 µM
same,GI50,[4],36.2 µM
same,TGI,[4],> 100 µM
same,GI50,[5],17.4 µM
same,TGI,[5],55.5 µM
same,GI50,[6],19 µM
same,TGI,[6],42.5 µM
same,GI50,[7],23.7 µM
same,TGI,[7],> 100 µM
same,GI50,[8],19.7 µM
same,TGI,[8],48.9 µM
same,GI50,[10],16.9 µM
same,TGI,[10],33.4 µM
same,GI50,[11],22.1 µM
same,TGI,[11],65.8 µM
same,GI50,[58],18.6 µM
same,TGI,[58],48 µM
same,GI50,[12],17.5 µM
same,TGI,[12],63 µM
same,GI50,[13],26.6 µM
same,TGI,[13],66.7 µM
same,GI50,[14],5.24 µM
same,TGI,[14],27.8 µM
same,GI50,[15],13.6 µM
same,TGI,[15],33.3 µM
same,GI50,[16],24.1 µM
same,TGI,[16],75.5 µM
same,GI50,[17],31.6 µM
same,TGI,[17],83.5 µM
same,GI50,[18],14.1 µM
same,TGI,[18],32.4 µM
same,GI50,[19],20.1 µM
same,TGI,[19],46.6 µM
same,GI50,[20],13.5 µM
same,TGI,[20],30.9 µM
same,GI50,[21],14.1 µM
same,TGI,[21],82.3 µM
same,GI50,[22],13 µM
same,TGI,[22],34.2 µM
same,GI50,[23],16.7 µM
same,TGI,[23],49.2 µM
same,GI50,[24],21.9 µM
same,TGI,[24],48 µM
same,GI50,[25],18.5 µM
same,TGI,[25],39.2 µM
same,GI50,[27],13.8 µM
same,TGI,[27],30.3 µM
same,GI50,[28],15.7 µM
same,TGI,[28],35.3 µM
same,GI50,[29],14.2 µM
same,TGI,[29],55.1 µM
same,GI50,[30],18.5 µM
same,TGI,[30],45.5 µM
same,GI50,[31],22 µM
same,TGI,[31],55.1 µM
same,GI50,[32],14.6 µM
same,TGI,[32],45.6 µM
same,GI50,[33],25.4 µM
same,TGI,[33],61.6 µM
same,GI50,[34],41 µM
same,TGI,[34],> 100 µM
same,GI50,[35],19.1 µM
same,TGI,[35],63.1 µM
same,GI50,[36],19.6 µM
same,TGI,[36],58 µM
same,GI50,[37],20.7 µM
same,TGI,[37],77.6 µM
same,GI50,[38],17.9 µM
same,TGI,[38],50.1 µM
same,GI50,[39],25.8 µM
same,TGI,[39],72.4 µM
same,GI50,[40],18.1 µM
same,TGI,[40],39.9 µM
same,GI50,[41],18.5 µM
same,TGI,[41],48.5 µM
same,GI50,[42],22.4 µM
same,TGI,[42],82 µM
same,GI50,[43],15.5 µM
same,TGI,[43],44.6 µM
same,GI50,[44],7.93 µM
same,TGI,[44],36.8 µM
same,GI50,[45],17.4 µM
same,TGI,[45],37.3 µM
same,GI50,[46],25.2 µM
same,TGI,[46],> 100 µM
same,GI50,[47],6 µM
same,TGI,[47],34.3 µM
same,GI50,[48],17.2 µM
same,TGI,[48],35.2 µM
same,GI50,[49],18.5 µM
same,TGI,[49],46.2 µM
same,GI50,[50],11.8 µM
same,TGI,[50],27.9 µM
same,GI50,[51],33.5 µM
same,TGI,[51],> 100 µM
same,GI50,[52],21.4 µM
same,TGI,[52],55.6 µM
same,GI50,[53],14.7 µM
same,TGI,[53],36.5 µM
same,GI50,[54],8.8 µM
same,TGI,[54],21.1 µM
same,GI50,[55],20.8 µM
same,TGI,[55],69.8 µM
same,GI50,[56],33.9 µM
same,TGI,[56],> 100 µM
same,GI50,[57],20.7 µM
same,TGI,[57],79.7 µM
